This assay concerns rat small-intestinal brush border membrane vesicles. The assay can be described thus: Inhibitory effect on 33PO4 uptake into rat small-intestinal brush border membrane vesicles (rapid filtration method). It counts as biochemical. To be noted: 33PO4 uptake into rat small-intestinal BBMVs; test compound 1 µM; reacted for 60 seconds. In short, it runs like this:
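Uptake of ^33PO4 was measured by rapid filtration and liquid scintillation counting of filter-retained vesicles, after quenching with ice-cold 110 mM NaCl/1 mM KH2PO4/10 mM HEPES pH 7.5. Vesicles were brush border membranes from the upper small intestine of female Wistar rats aged 4–5 weeks.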
Take `C[C@@H]1COC[C@H](C)N1CCOc1ccc(CN2C(=O)C(C(=O)Nc3ccc(C(F)(F)F)cc3-c3cc(C(F)(F)F)ncn3)=C(O)C3(CCC3)N2C)c(F)c1F` [Example 344]: the “Rate of uptake inhibition (%) (1 µM)” value was determined as 58%. As for `CN(C)CC(C)(C)COc1ccc(CN2C(=O)C(C(=O)Nc3ccc(C(F)(F)F)cc3-c3cc(C(F)(F)F)ncn3)=C(O)C3(CCCC3)N2C)c(F)c1F` [Example 414, 7-(4-(3-(Dimethylamino)-2,2-dimethylpropoxy)-2,3-difluorobenzyl)-10-hydroxy-6-methyl-8-oxo-N-(4-(trifluoromethyl)-2-(6-(trifluoromethyl)pyrimidin-4-yl)phenyl)-6,7-diazaspiro[4.5]dec-9-ene-9-carboxamide], the figure is 27%; as for `C[C@]12CCCN1N(Cc1ccccc1Cl)C(=O)C(C(=O)Nc1ccc(C(F)(F)F)cc1-c1cc(C(F)(F)F)ncn1)=C2O` [Example 180], 75%; as for `COC(C)(C)CN(C)CCOc1ccc(CN2C(=O)C(C(=O)Nc3ccc(C(F)(F)F)cc3-c3cc(C(F)(F)F)ncn3)=C(O)C3(CCC3)N2C)c(F)c1F` [Example 350], 45%.

Consider `CN1N(Cc2ccc(OCCOCCOCCOCCC(=O)NCC(O)CO)c(F)c2F)C(=O)C(C(=O)Nc2ccc(C(F)(F)F)cc2-c2cc(C(F)(F)F)ncn2)=C(O)C12CCCC2` (stereo not drawn) [Example 424], for which the “Rate of uptake inhibition (%) (1 µM)” value came to 17%. Consider `CN1N(Cc2ccc(OCC3CCCO3)c(F)c2F)C(=O)C(C(=O)Nc2ccc(C(F)(F)F)cc2-c2cc(C(F)(F)F)ncn2)=C(O)C12CCCC2` (stereo not drawn) [Example 413], for which the “Rate of uptake inhibition (%) (1 µM)” value is reported as 34%. To `C[C@]12CCCN1N(Cc1ccc(F)c(F)c1)C(=O)C(C(=O)Nc1ccc(C(F)(F)F)cc1-c1ccc(C(F)(F)F)nc1)=C2O` [Example 170] belongs 73%; to `CN1N(Cc2ccc(OCCN3CCOCC3)c(F)c2F)C(=O)C(C(=O)Nc2ccc(C(F)(F)F)cc2-c2cc(C(F)(F)F)ncn2)=C(O)C1(C)C` [Example 313, 2-[[2,3-Difluoro-4-(2-morpholin-4-ylethoxy)phenyl]methyl]-5-hydroxy-1,6,6-trimethyl-3-oxo-N-[4-(trifluoromethyl)-2-[6-(trifluoromethyl)pyrimidin-4-yl]phenyl]pyridazine-4-carboxamide], 65%; to `Cc1c(C#N)ncnc1-c1cc(Cl)ccc1NC(=O)C1=C(O)[C@H](C(C)(C)C)N(C)N(Cc2ccc(OCCN3CCOCC3)c(F)c2F)C1=O` [Example 274], 43%. To `C[C@]12CCCN1N(Cc1cccc(F)c1F)C(=O)C(C(=O)Nc1ccc(Br)cc1F)=C2O` [Example 75] belongs 74%.

As to `CN1[C@@H](C(C)(C)C)C(O)=C(C(=O)Nc2ccc(Cl)cc2-c2ccc(C(F)(F)F)nc2)C(=O)N1Cc1cccc(F)c1F` [Example 239], the “Rate of uptake inhibition (%) (1 µM)” value turned out to be 48%. To `Cc1ncc(-c2cc(C(F)(F)F)ccc2NC(=O)C2=C(O)[C@@]3(C)CCCN3N(Cc3cccc(F)c3F)C2=O)cc1C#N` [Example 109, (4aR)-N-[2-(5-Cyano-6-methylpyridin-3-yl)-4-(trifluoromethyl)phenyl]-1-[(2,3-difluorophenyl)methyl]-4-hydroxy-4-methyl-2-oxo-6,7-dihydro-5H-pyrrolo[1.2-b]pyridazine-3-carboxamide] belongs 52%. As for `CN1N(Cc2ccc(OCCN3CCOC(=O)C3)c(F)c2F)C(=O)C(C(=O)Nc2ccc(C(F)(F)F)cc2-c2cc(C(F)(F)F)ncn2)=C(O)C12CCC2` [Example 337, 8-[[2,3-Difluoro-4-[2-(2-oxomorpholin-4-yl)ethoxy]phenyl]methyl]-5-hydroxy-9-methyl-7-oxo-N-[4-(trifluoromethyl)-2-[6-(trifluoromethyl)pyrimidin-4-yl]phenyl)-8.9-diazaspiro [3. 5]non-5-ene-6-carboxamide], the figure is 47%. As for `COCC(C)(C)N(C)CCOc1ccc(CN2C(=O)C(C(=O)Nc3ccc(C(F)(F)F)cc3-c3cc(C(F)(F)F)ncn3)=C(O)C3(CCCC3)N2C)c(F)c1F` [Example 372], the figure is 38%; as for `COc1cc(CN2C(=O)C(C(=O)Nc3ccc(C(F)(F)F)cc3-c3ccc(C(F)(F)F)nc3)=C(O)[C@@]3(C)CCCN23)cc(OC)c1` [Example 202], 75%; as for `C[C@]12CCCN1N(Cc1ccccc1Cl)C(=O)C(C(=O)Nc1cc(F)c(Br)c(F)c1)=C2O` [Example 219], 95%. As to `CCN1[C@@H](C(C)(C)C)C(O)=C(C(=O)Nc2cc(F)c(Br)c(F)c2)C(=O)N1Cc1cccc(F)c1F` [Example 246], the “Rate of uptake inhibition (%) (1 µM)” value is listed as 52%. As for `CN1N(Cc2ccc(OCCCCCC(=O)O)c(F)c2F)C(=O)C(C(=O)Nc2ccc(C(F)(F)F)cc2-c2cc(C(F)(F)F)ncn2)=C(O)C12CCCC2` [Example 334], the “Rate of uptake inhibition (%) (1 µM)” value was determined as 22%. Turning to `CN1[C@@H](C(C)(C)C)C(O)=C(C(=O)Nc2ccc(Br)c(C(F)(F)F)c2)C(=O)N1Cc1cccc(F)c1F` [Example 243], the “Rate of uptake inhibition (%) (1 µM)” value came out at 63%. `C[C@]12CCCN1N(Cc1cccc(F)c1F)C(=O)C(C(=O)Nc1ccc(Br)cn1)=C2O` [Example 78]: the “Rate of uptake inhibition (%) (1 µM)” value stood at 71%. As for `CN1N(Cc2cccc(F)c2F)C(=O)C(C(=O)Nc2cc(F)c(Br)c(F)c2)=C(O)C12CCC2` [Example 257], the figure is 71%; as for `CCC1(CC)C(O)=C(C(=O)Nc2ccc(Cl)cc2-c2ccc(C(F)(F)F)nc2)C(=O)N(Cc2ccc(OCCN3CCOCC3)c(F)c2F)N1C` [Example 294], 40%. As for `CN1N(Cc2ccc(OCCCCOC[C@H](O)CO)c(F)c2F)C(=O)C(C(=O)Nc2ccc(C(F)(F)F)cc2-c2cc(C(F)(F)F)ncn2)=C(O)C12CCCC2` [Example 393], the figure is 45%; as for `CN1N(Cc2ccc(OCCCOC[C@H](O)CO)c(F)c2F)C(=O)C(C(=O)Nc2ccc(C(F)(F)F)cc2-c2cc(C(F)(F)F)ncn2)=C(O)C12CCCC2` [Example 392], 47%; as for `CN1[C@@H](C(C)(C)C)C(O)=C(C(=O)Nc2cccc(C(F)(F)F)n2)C(=O)N1Cc1cccc(F)c1F` [Example 244], 71%.

As for `Cc1cccc(CN2C(=O)C(C(=O)Nc3ccc(C(F)(F)F)cc3-c3ccc(C(F)(F)F)nc3)=C(O)[C@@]3(C)CCCN23)c1F` [Example 205], the “Rate of uptake inhibition (%) (1 µM)” value is 86%. As for `COCCN(C)CCOc1c(I)cc(CN2C(=O)C(C(=O)Nc3ccc(C(F)(F)F)cc3-c3cc(C(F)(F)F)ncn3)=C(O)C3(CCCC3)N2C)c(F)c1F` [Example 437, 7-[[2,3-Difluoro-5-iodo-4-[2-[2-methoxyethyl(methyl)amino]ethoxy]phenyl]methyl]-10-hydroxy-6-methyl-8-oxo-N-[4-(trifluoromethyl)-2-[6-(trifluoromethyl)pyrimidin-4-yl]phenyl]-6,7-diazaspiro[4.5]dec-9-ene-9-carboxamide], the figure is 45%.

Take `CC(C)[C@H]1C(O)=C(C(=O)Nc2ccc(C(F)(F)F)cc2-c2ccc(C(F)(F)F)nc2)C(=O)N(Cc2cccc(F)c2F)N1C` [Example 253]: the “Rate of uptake inhibition (%) (1 µM)” value is given as 40%.

As for “(4aR)-1-[(2,3-Difluorophenyl)methyl]-4-hydroxy-N-[5-methyl-2-(trifluoromethyl)furan-3-yl]-2-oxo-4a-propyl-6,7-dihydro-5H-pyrrolo[1,2-b]pyridazine-3-carboxamide [Example 12]”, the “Rate of uptake inhibition (%) (1 µM)” value came to 27%. To `Cc1cc(NC(=O)C2=C(O)[C@@H]3CCCN3N(Cc3cccc(F)c3)C2=O)c(C(F)(F)F)o1` [Example 1, (4aS)-1-[(3-Fluorophenyl)methyl]-4-hydroxy-N-[5-methyl-2-(trifluoromethyl)furan-3-yl]-2-oxo-4a,5,6,7-tetrahydropyrrolo[1,2-b]pyridazine-3-carboxamide] belongs 28%; to `C[C@]12CCCN1N(Cc1cccc(C#N)c1)C(=O)C(C(=O)Nc1ccc(C(F)(F)F)cc1-c1cc(C(F)(F)F)ncn1)=C2O` [Example 179], 83%; to `COCCN(C)CCN(C)c1ccc(CN2C(=O)C(C(=O)Nc3ccc(C(F)(F)F)cc3-c3cc(C(F)(F)F)ncn3)=C(O)C3(CCCC3)N2C)c(F)c1F` [Example 442], 24%. To `COc1cccc(-c2cc(C(F)(F)F)ccc2NC(=O)C2=C(O)[C@@]3(C)CCCN3N(Cc3cccc(F)c3F)C2=O)n1` [Example 93] belongs 56%; to “(4aS)-1-[(3-Fluorophenyl)methyl]-4-hydroxy-N-[5-methyl-2-(trifluoromethyl)furan-3-yl]-2-oxo-5,6,7,8-tetrahydro-4aH-pyrido[1,2-b]pyridazine-3-carboxamide [Example 16]”, 38%; to `CC1(C)CC[C@]2(C)C(O)=C(C(=O)Nc3cc(C(F)(F)F)ccc3-c3ccc(C(F)(F)F)nc3)C(=O)N(Cc3cccc(F)c3F)N12` [Example 63], 72%. As for `CC(C)(C)[C@H]1C(O)=C(C(=O)Nc2cc(F)c(Br)c(F)c2)C(=O)N(Cc2cccc(F)c2F)N1CC(F)(F)F` [Example 248], the figure is 45%; as for `CSc1ccc(-c2cc(C(F)(F)F)ccc2NC(=O)C2=C(O)[C@H](C(C)(C)C)N(C)N(Cc3ccc(OCCN4CCOCC4)c(F)c3F)C2=O)cn1` [Example 268], 63%.

With `CN1N(Cc2ccc(OCCCCCOC[C@H](O)CO)c(F)c2F)C(=O)C(C(=O)Nc2ccc(C(F)(F)F)cc2-c2cc(C(F)(F)F)ncn2)=C(O)C12CCCC2` [Example 394], the “Rate of uptake inhibition (%) (1 µM)” value is given as 45%.

On to `COc1ccc(OC)c(CN2C(=O)C(C(=O)Nc3ccc(C(F)(F)F)cc3-c3ccc(C(F)(F)F)nc3)=C(O)[C@@]3(C)CCCN23)c1` [Example 176], for which the “Rate of uptake inhibition (%) (1 µM)” value was found to be 75%.

The record behind these values is patent EP3928779A1 (Chugai Seiyaku Kabushiki Kaisha, priority 2014, dated 2016).
